Values quoted from earlier work as cited in patent US20080057111A1 (priority 2006, published 2008).

tested on: not given; conditions: not given

Compound	anti-endotoxin activity in vivo
O=C(O)c1ccccc1 [benzoic acid]	anti-endotoxin activity
COc1cc(C(=O)O)cc(OC)c1O [syringic acid]	anti-endotoxin activity
Nc1ccccc1C(=O)O [σ-aminobenzoic acid]	anti-endotoxin activity
O=C(O)c1ccccc1O [salicylic acid]	anti-endotoxin activity

tested on: severe acute respiratory syndrome (SARS) virus; conditions: recent report

Compound	effect on SARS virus
CC[C@H](CC[C@@H](C)[C@H]1CC[C@H]2[C@@H]3CC=C4C[C@@H](O)CC[C@]4(C)[C@H]3CC[C@]12C)C(C)C [beta-sitosterol]	inhibitory effect
O=c1c(-c2ccc(O)cc2)coc2cc(O)ccc12 [daidzein]	inhibitory effect
C=CCC(=NOS(=O)(=O)O)S[C@@H]1O[C@H](CO)[C@@H](O)[C@H](O)[C@H]1O (stereo in doubt) [sinigrin]	inhibitory effect
OC[C@H]1O[C@@H](Oc2c[nH]c3ccccc23)[C@H](O)[C@@H](O)[C@@H]1O [indican]	inhibitory effect
COc1ccc([C@@H]2CC(=O)c3c(O)cc(O)cc3O2)cc1O [hespertin]	inhibitory effect
O=C1/C(=C2\Nc3ccccc3C2=O)Nc2ccccc21 [indigo]	inhibitory effect
